{"source": "patent US3948890A", "about": "“4H-1,3-benzoxazin-2-one-3-acetohydroxamic acid derivatives” (Farmitalia Societa Farmaceutica Italia, priority 1971, dated 1976)", "key": {"[1]": {"experiment": "Highest tolerated intraperitoneal dose", "details": "in vivo, ip"}, "[2]": {"experiment": "Antagonism to the reserpine induced syndrome (ptosis, rectal temperature)", "type": "in vivo", "parameters": "Ptosis: scale not given here"}, "[3]": {"test_system": "albino male mice", "experiment": "Spontaneous behavior, motor coordination, muscular tension and nociceptive reflexes", "type": "in vivo", "details": "up to 200 mg/kg i.v., observation 5 hours", "description": "Among the compounds of the invention, 4H-1,3-benzoxazin-2-one-3-[N-(β-hydroxyethyl)-piperazino-methyl]-acetohydroxamic acid has been particularly studied and compared with 4H-1,3-benzoxazin-2-one-3-acetohydroxamic acid."}, "[4]": {"experiment": "Acute toxicity (LD50), single oral and intravenous administration", "type": "in vivo, albino male mice", "details": "mouse, in vivo, single administration, within 48 hours", "method": "(§1) The acute toxicity (LD50), determined on albino male mice (weight 20-22 g) by a single oral and intravenous administration, is settled within 48 hours."}, "[5]": {"test_system": "albino male mice", "experiment": "Acute toxicity (LD50), single oral and intravenous administration", "type": "in vivo", "details": "intravenous route", "method": "as §1"}, "[6]": {"test_system": "reserpinized swimming rat", "experiment": "Antireserpine effect in a behavior test, swimming rat", "type": "in vivo"}, "[7]": {"details": "25.0 mg/kg intraperitoneal, + R (reserpine)"}, "[8]": {"details": "50.0 mg/kg intraperitoneal, + R (reserpine)"}, "[9]": {"details": "100.0 mg/kg intraperitoneal, + R (reserpine)"}, "[10]": {"details": "25 mg/kg intraperitoneal, + R (reserpine)"}, "[11]": {"details": "50 mg/kg intraperitoneal, + R (reserpine)"}, "[12]": {"details": "Table 4, 50 mg/kg intraperitoneal, reserpine not stated"}, "[13]": {"details": "reserpine alone, 3.0 mg/kg intraperitoneal"}}, "note": "Like-named read-outs stand apart in the source and are kept apart here."}
{"smiles": "O=C(CN1Cc2ccccc2OC1=O)N(O)CN1CCN(CCO)CC1", "note": "[4H-1,3-benzoxazin-2-one-3-[N-(β-hydroxyethyl)piperazinomethyl] -acetohydroxamic acid]", "values": [{"measurement": "MTD", "setting": "[1]; read-out: tolerated up to dose", "value": "≥ 300", "unit": "mg/kg"}, {"measurement": "Ptosis", "setting": "[2]; [7]", "value": 24}, {"measurement": "Rectal temperature", "setting": "[2]; [7]", "value": 33.1, "unit": "°C"}, {"measurement": "Ptosis", "setting": "[2]; [8]", "value": 19}, {"measurement": "Rectal temperature", "setting": "[2]; [8]", "value": 35.6, "unit": "°C"}, {"measurement": "Ptosis", "setting": "[2]; [9]", "value": 2}, {"measurement": "Rectal temperature", "setting": "[2]; [9]", "value": 37.6, "unit": "°C"}, {"measurement": "antagonizing the hypothermia induced by reserpine", "setting": "[2]; in words, Table 1", "value": "most active"}, {"measurement": "antagonizing the ptosis induced by reserpine", "setting": "[2]; in words, Table 1", "value": "most active"}, {"measurement": "motor apparatus coordination", "setting": "[3]", "value": "does not modify"}, {"measurement": "muscular tension", "setting": "[3]", "value": "does not modify"}, {"measurement": "nociceptive reflexes", "setting": "[3]", "value": "does not modify"}, {"measurement": "spontaneous behavior", "setting": "[3]", "value": "does not modify"}, {"measurement": "LD50 at 48 h", "setting": "[4]; po, per os", "value": "> 3000", "unit": "mg/kg"}, {"measurement": "LD50 at 48 h", "setting": "[4]; intravenous", "value": 576, "unit": "mg/kg"}, {"measurement": "times less toxic than Imipramine", "setting": "[5]", "value": "about 20 times"}, {"measurement": "less toxic than 4H-1,3-benzoxazin-2-one-3-acetohydroxamic acid", "setting": "[5]; in words", "value": "about half again less toxic"}, {"measurement": "Average time to get out of the basin", "setting": "[6]; [10]", "value": 28, "unit": "s"}, {"measurement": "Number of the animals which do not get out", "setting": "[6]; [10]", "value": "0/10"}, {"measurement": "getting out of a basin full of water", "setting": "[6]; in words, pretreated plus reserpine, versus control animals", "value": "manage to get out of the basin within a period of time slightly longer than that of the control animals"}]}
{"smiles": "O=C(CN1Cc2ccccc2OC1=O)NO", "note": "[4H-1,3-benzoxazin-2-one-3-acetohydroxamic acid]", "values": [{"measurement": "Ptosis", "setting": "[2]; [8]", "value": 29}, {"measurement": "Rectal temperature", "setting": "[2]; [8]", "value": 36.0, "unit": "°C"}, {"measurement": "Ptosis", "setting": "[2]; [9]", "value": 5}, {"measurement": "Rectal temperature", "setting": "[2]; [9]", "value": 38.1, "unit": "°C"}, {"measurement": "LD50 at 48 h", "setting": "[4]; po, per os", "value": "~2000", "unit": "mg/kg"}, {"measurement": "LD50 at 48 h", "setting": "[4]; intravenous", "value": 350, "unit": "mg/kg"}, {"measurement": "Average time to get out of the basin", "setting": "[6]; [11]", "value": 25, "unit": "s"}, {"measurement": "Number of the animals which do not get out", "setting": "[6]; [11]", "value": "0/10"}]}
{"smiles": "CCN(CC)CCN(CC)CN(O)C(=O)CN1Cc2ccccc2OC1=O", "note": "[Example 2, 4H-1,3-benzoxazin-2-one-3-[(N,N,N'triethyl)-ethylenediaminomethyl]-acetohydroxamic acid]", "values": [{"measurement": "LD50 at 48 h", "setting": "[4]; po, per os", "value": 2550, "unit": "mg/kg"}, {"measurement": "LD50 at 48 h", "setting": "[4]; intravenous", "value": 328, "unit": "mg/kg"}, {"measurement": "Average time to get out of the basin", "setting": "[6]; [12]", "value": 10, "unit": "s"}, {"measurement": "Number of the animals which do not get out", "setting": "[6]; [12]", "value": "1/10"}, {"measurement": "test results", "setting": "[6]; in words", "value": "good test results"}]}
{"smiles": "CN(C)CCCN1c2ccccc2CCc2ccccc21", "note": "[Imipramine, reference compound]", "values": [{"measurement": "MTD", "setting": "[1]; read-out: highest tolerated dose", "value": 50, "unit": "mg/kg"}, {"measurement": "Ptosis", "setting": "[2]; [8]", "value": 29}, {"measurement": "Rectal temperature", "setting": "[2]; [8]", "value": 36.0, "unit": "°C"}, {"measurement": "Average time to get out of the basin", "setting": "[6]; [10]", "value": 40, "unit": "s"}, {"measurement": "Number of the animals which do not get out", "setting": "[6]; [10]", "value": "7/10"}]}
{"smiles": "COC(=O)[C@H]1[C@H]2C[C@@H]3c4[nH]c5cc(OC)ccc5c4CCN3C[C@H]2C[C@@H](OC(=O)c2cc(OC)c(OC)c(OC)c2)[C@@H]1OC", "note": "[Reserpine, reference compound]", "values": [{"measurement": "Ptosis", "setting": "[2]; [13]", "value": 40}, {"measurement": "Rectal temperature", "setting": "[2]; [13]", "value": 32.1, "unit": "°C"}, {"measurement": "getting out of a basin full of water", "setting": "[6]; in words, reserpinized animals", "value": "can no longer get out of a basin full of water"}, {"measurement": "Number of the animals which do not get out", "setting": "[6]; reserpine alone, 5 mg/kg intraperitoneal", "value": "10/10"}]}
